Data from PMC6328046 (Gastroenterology, 2018).

Molecular target: HDAC2 (Homo sapiens, UniProt Q92769)
Assay: surface plasmon resonance with recombinant HDAC2
Type: binding

Sequence of HDAC2 (Q92769 whole entry): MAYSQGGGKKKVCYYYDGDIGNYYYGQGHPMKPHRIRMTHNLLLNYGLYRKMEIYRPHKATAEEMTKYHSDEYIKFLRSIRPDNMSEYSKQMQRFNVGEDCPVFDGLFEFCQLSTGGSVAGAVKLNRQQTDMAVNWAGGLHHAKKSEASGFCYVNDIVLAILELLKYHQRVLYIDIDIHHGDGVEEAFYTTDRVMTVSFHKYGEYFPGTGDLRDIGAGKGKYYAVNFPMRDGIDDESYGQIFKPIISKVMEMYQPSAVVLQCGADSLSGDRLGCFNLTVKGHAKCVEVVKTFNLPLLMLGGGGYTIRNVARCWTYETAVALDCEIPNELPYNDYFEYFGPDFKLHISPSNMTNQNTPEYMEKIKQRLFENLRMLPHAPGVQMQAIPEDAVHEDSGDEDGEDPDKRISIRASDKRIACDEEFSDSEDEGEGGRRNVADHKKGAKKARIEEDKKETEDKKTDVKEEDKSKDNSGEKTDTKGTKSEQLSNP

For `COc1ccc(Nc2nnc(-c3ccc(C(=O)NO)cc3)o2)cc1` [metavert], the Kd was 12.8 µM.
